Laboratory results taken from ChEMBL document CHEMBL1201862, “PubChem BioAssay data set” (2004).
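Cultured in 96-well plates, cells were exposed to test compound for 48 hours across five concentrations. The concentration for 50% growth inhibition is given as GI50.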 The source made the active and inactive calls. Cut-off read from the data, not from the text of the source: active = GI50 up to about 1.1 µM and inactive = higher.

How the values were obtained:
Assay in all cases: DTP human tumour cell line panel, 48 h
NCI/ADR-RES = system: NCI/ADR-RES
OVCAR-8 = system: OVCAR-8
UACC-62 = system: UACC-62
HCT-116 = system: HCT-116
LOX IMVI = system: LOX IMVI
A549 = system: A549
HOP-62 = system: HOP-62
T47D = system: T47D
MDA-N = system: MDA-N
HOP-92 = system: HOP-92
NCI-H23 = system: NCI-H23
786-0 = system: 786-0
U-251 = system: U-251
SK-MEL-28 = system: SK-MEL-28
CAKI-1 = system: CAKI-1
SNB-19 = system: SNB-19
RXF 393 = system: RXF 393
HCT-15 = system: HCT-15
Hs-578T = system: Hs-578T
BT-549 = system: BT-549

Compound | GI50 (NCI/ADR-RES) | GI50 (OVCAR-8) | GI50 (UACC-62) | GI50 (HCT-116) | GI50 (LOX IMVI) | GI50 (A549) | GI50 (HOP-62) | GI50 (T47D) | GI50 (MDA-N) | GI50 (HOP-92) | GI50 (NCI-H23) | GI50 (786-0) | GI50 (U-251) | GI50 (SK-MEL-28) | GI50 (CAKI-1) | GI50 (SNB-19) | GI50 (RXF 393) | GI50 (HCT-15) | GI50 (Hs-578T) | GI50 (BT-549)
O=C(O)c1cc(Cl)cc(Cc2cc(Cl)cc(C(=O)O)c2O)c1O | > 100 µM (inactive) | > 100 µM (inactive) | > 100 µM (inactive) | > 100 µM (inactive) | > 100 µM (inactive) | > 100 µM (inactive) | > 100 µM (inactive) | > 100 µM (inactive) | > 100 µM (inactive) | > 100 µM (inactive) | > 100 µM (inactive) | > 100 µM (inactive) | > 100 µM (inactive) | > 100 µM (inactive) | > 100 µM (inactive) | > 100 µM (inactive) | > 100 µM (inactive) | > 100 µM | > 100 µM (inactive) | > 100 µM (inactive)
CCOC(=O)c1ccc(/N=C/C=C(\Nc2ccc(C(=O)OCC)cc2)C23CC4CC(CC(C4)C2)C3)cc1 | > 100 µM (inactive) | 44.3 µM (inactive) | 31 µM (inactive) | 56.5 µM (inactive) | 95.3 µM (inactive) | 50.6 µM (inactive) | > 100 µM (inactive) | 18.3 µM (inactive) | 61.1 µM (inactive) | 15.8 µM (inactive) | 54 µM (inactive) | 56.1 µM (inactive) | > 100 µM (inactive) | > 100 µM (inactive) | > 100 µM (inactive) | > 100 µM (inactive) | 27 µM (inactive) | 92.3 µM | > 100 µM (inactive) | > 100 µM (inactive)
Cc1cc2c(cc1Cl)SC(NNc1cnc3ccccc3n1)=NS2(=O)=O | > 100 µM (inactive) | 68.5 µM (inactive) | 60.7 µM (inactive) | 48.1 µM (inactive) | 46 µM (inactive) | 78.9 µM (inactive) | 41.7 µM (inactive) | 55.1 µM (inactive) | 90.2 µM (inactive) | 35.7 µM (inactive) | > 100 µM (inactive) | 38.3 µM (inactive) | 48.6 µM (inactive) | 60.5 µM (inactive) | > 100 µM (inactive) | 50.1 µM (inactive) | 40.3 µM (inactive) | 75.2 µM | 51.9 µM (inactive) | > 100 µM (inactive)
COc1cc(/C=C2\C(=O)N(c3ccccc3)C(c3ccccc3)S2(=O)=O)cc(OC)c1OC (stereo not given) | 28.4 µM (inactive) | 21.3 µM (inactive) | 30.1 µM (inactive) | 21.1 µM (inactive) | 31.4 µM (inactive) | 43.8 µM (inactive) | 70.6 µM (inactive) | 36.1 µM (inactive) | 16.4 µM (inactive) | 33 µM (inactive) | 39.1 µM (inactive) | 69.5 µM (inactive) | 28.6 µM (inactive) | 51.6 µM (inactive) | 88.7 µM (inactive) | 31 µM (inactive) | 17.1 µM (inactive) | 37.9 µM | 70.3 µM (inactive) | 35.6 µM (inactive)
CC1=CC[C@@]2(CO)[C@@H]([C@@H]1C)[C@H]1CC[C@@H]3[C@@]4(C)CC[C@H](O)C(C)(C)[C@@H]4CC[C@@]3(C)[C@]1(C)C[C@@H]2O | 27.1 µM (inactive) | 14.3 µM (inactive) | 20.9 µM (inactive) | 21.5 µM (inactive) | 15.8 µM (inactive) | 15.9 µM (inactive) | 14.3 µM (inactive) | 11.9 µM (inactive) | 81.7 µM (inactive) | 16.9 µM (inactive) | 17.5 µM (inactive) | 24.5 µM (inactive) | 14.4 µM (inactive) | 43.9 µM (inactive) | 19.8 µM (inactive) | 35.1 µM (inactive) | 7.08 µM (inactive) | 46.3 µM | 15.8 µM (inactive) | 20.3 µM (inactive)
Cc1nc(C)c(N2CCN([N+](=O)[O-])CC2)c(O)n1 | > 100 µM (inactive) | > 100 µM (inactive) | > 100 µM (inactive) | > 100 µM (inactive) | > 100 µM (inactive) | > 100 µM (inactive) | > 100 µM (inactive) | > 100 µM (inactive) | > 100 µM (inactive) | > 100 µM (inactive) | > 100 µM (inactive) | > 100 µM (inactive) | > 100 µM (inactive) | > 100 µM (inactive) | > 100 µM (inactive) | > 100 µM (inactive) | > 100 µM (inactive) | > 100 µM | > 100 µM (inactive) | > 100 µM (inactive)
COC(=O)/C=C\C(C#N)(C#N)/N=C/c1ccsc1 | 2.54 µM (inactive) | 4.19 µM (inactive) | 4.8 µM (inactive) | 1.75 µM (inactive) | 2.24 µM (inactive) | 17.7 µM (inactive) | 16.9 µM (inactive) | 1.86 µM (inactive) | 3.83 µM (inactive) | 1.74 µM (inactive) | 7.45 µM (inactive) | 1.37 µM (inactive) | 15.8 µM (inactive) | 2.83 µM (inactive) | 2.26 µM (inactive) | 14.5 µM (inactive) | 1.78 µM (inactive) | 1.55 µM | 10.6 µM (inactive) | 1.84 µM (inactive)
CSc1ccc(/C=C2\N=C(c3ccccc3)N(c3nc4ccc(Sc5ccccc5)cc4[nH]3)C2=O)cc1 | 19.4 µM (inactive) | 28.2 µM (inactive) | 14.2 µM (inactive) | 14.7 µM (inactive) | 17.6 µM (inactive) | 35.5 µM (inactive) | 17.2 µM (inactive) | 20.5 µM (inactive) | 3.37 µM (inactive) | 33.6 µM (inactive) | 26.3 µM (inactive) | 13.9 µM (inactive) | 16.7 µM (inactive) | 18.9 µM (inactive) | 21.5 µM (inactive) | 24.9 µM (inactive) | 17.4 µM (inactive) | 18.2 µM | 18.6 µM (inactive) | 18.3 µM (inactive)
NS(=O)(=O)c1nnc(NC(=O)c2ccccc2)s1 | > 100 µM (inactive) | > 100 µM (inactive) | > 100 µM (inactive) | > 100 µM (inactive) | > 100 µM (inactive) | > 100 µM (inactive) | > 100 µM (inactive) | > 100 µM (inactive) | > 100 µM (inactive) | 65.3 µM (inactive) | > 100 µM (inactive) | > 100 µM (inactive) | > 100 µM (inactive) | > 100 µM (inactive) | > 100 µM (inactive) | > 100 µM (inactive) | > 100 µM (inactive) | > 100 µM | > 100 µM (inactive) | > 100 µM (inactive)
O=C1OC(c2ccc(O)c(Cl)c2)(c2ccc(O)c(Cl)c2)c2ccc(Br)c3cccc1c23.O=C1OC(c2ccc(O)c(Cl)c2)(c2ccc(O)c(Cl)c2)c2cccc3c(Br)ccc1c23 | 16.6 µM (inactive) | 27.8 µM (inactive) | 12.4 µM (inactive) | 19.3 µM (inactive) | 20 µM (inactive) | 18.8 µM (inactive) | 21.5 µM (inactive) | 2.9 µM (inactive) | 21 µM (inactive) | 9.53 µM (inactive) | 16.7 µM (inactive) | 19 µM (inactive) | 20.1 µM (inactive) | 20.9 µM (inactive) | 14.1 µM (inactive) | 23.1 µM (inactive) | 17.3 µM (inactive) | 24.8 µM | 29.3 µM (inactive) | 21.5 µM (inactive)
